# According to patent US5618814A, “Trisubstituted pyrimido [5,4-d] pyrimidines for modulating multi-drug resistance and pharmaceutical compositions containing these compounds” (Dr. Karl Thomae GmbH, priority 1993, dated 1997):
# Read-outs that look alike come from different tables or passages of the source.
# Tests used:
# [1] = system: adriamycin-resistant S 180 mouse sarcoma cells; experiment: Cytotoxicity in proliferating adriamycin-resistant S 180 mouse sarcoma cells (MTT, 6 days) in the absence or presence of adriamycin; assay type: cell-based; settings: S-180, 144 h
# Procedure: was tested on cells resistant to adriamycin as follows:
# Proliferating, adriamycin-resistant S 180 mouse sarcoma cells were cultivated for six days in the presence of various concentrations of test substances. Concentrations of the test substances with a cytotoxic or cytostatic effect were indicated by reduced cell growth or by the cells dying off. The end point of the assay is the number of living cells per culture which is determined indirectly, making use of the property of vital cells to reduce the dye MTT [=3-(4,5-dimethylthiazol-2-yl)-2,5-diphenyltetrazoliumbromide] to coloured formazane. The IC50 denotes the concentration of a test substance which reduces the number of vital cells per culture vessel to 50% of the untreated control. […] Therefore, two IC50 values are obtained for each test substance, one in the presence of adriamycin (IC50 ADR), the other in the absence of adriamycin (IC50). The difference in the logarithms (to the base ten) of the two IC50 values: Δ=lgIC50-lgIC50 ADR is a measure of the increase in the cytotoxicity of the test substance brought about by adriamycin.
# Exponentially growing adriamycin-resistant or adriamycin-sensitive S 180 cells were plated out in 96-well flat-bottomed microtitre dishes at a rate of 2000 cells per well in 100 μl of growth medium (RPMI-1640 containing 10% foetal calf serum). The culture dishes were incubated in an incubator at 37° C., 5% CO2 at 100% relative humidity. After 24 hours, 50 μl of growth medium containing various concentrations of test substance and 50 μl of growth medium with or without adriamycin were added to each well. Following a further 6-day cultivation period, 50 μl of tetrazolium salt solution [5 mg of 3-(4,5-dimethylthiazol-2-yl)-2,5-diphenyl-tetrazoliumbromide per ml of phosphate-buffered saline solution, diluted 1:5 (v/v) with RPMI-1640 before use] were pipetted into each well. After […] incubation the culture medium was carefully suction filtered and the formazane formed intracellularly was solubilised with 150 μl of dimethylsulphoxide per well. The dishes were briefly shaken and the optical density was measured at 570 nm with a photometer such as a Dynatech MR-600 apparatus. The formation of the coloured formazane by reduction of the tetrazolium salt is proportional to the number of living cells. The averages of three measurements were used to calculate the IC50 values (dilution stage: 1:2).
# [2] = Tolerability after i.v. administration in mice; assay type: in vivo; settings: 100 mg/kg i.v. in mice
# [3] = Adriamycin 0 ng/ml (absence of adriamycin), read-out: IC50
# [4] = in presence of Adriamycin 100 ng/ml, read-out: IC50 (IC50 ADR)
Structure (SMILES),"IC50 [1, 3] [µg/mL]","IC50 [1, 4] [µg/mL]",toxic side effects / tolerability [2]
"CN(C)C1CCN(c2nc(N3CCOCC3)c3ncnc(N(CCCNC(=O)c4ccccc4)Cc4ccccc4)c3n2)CC1 [Substance J, 2-[4-(N, N-dimethylamino)-piperidino]-8-[N-benzyl-N-(3-benzoylaminopropyl)-amino]-4-morpholino-pyrimido-[5,4-d]pyrimidine]",3,0.1,
"CN(Cc1ccccc1)c1ncnc2c(N3CCCCC3)nc(N3CCC(N(C)C)CC3)nc12 [Substance C, 2-[4-(N,N-dimethylamino)-piperidino]-8-(N-benzyl-N-methyl-amino)-4-piperidino-pyrimido [5,4-d]pyrimidine]",2,0.3,
"COc1cc2c(cc1OC)CN(c1ncnc3c(N4CCOCC4)nc(N4CCC(N(C)C)CC4)nc13)CC2 [Substance G, 2-[4-(N,N-dimethylamino)-piperidino]-8-(6,7-dimethoxy-1,2,3,4-tetrahydro-isoquinolin-2-yl)-4-morpholino-pyrimido [5,4-d]pyrimidine]",3,0.1,did not lead to any detectable toxic side effects
"CN(Cc1ccccc1)c1ncnc2c(N3CCOCC3)nc(N3CCC(N4CCCCC4)CC3)nc12 [Substance D, 8-(N-benzyl-N-methyl-amino)-2-[4-(piperidino)-piperidin-1-yl]-4-morpholino-pyrimido [5,4-d]pyrimidine]",3,0.3,
"CN(Cc1ccccc1)c1ncnc2c(N3CCOCC3)nc(N3CCC(N(C)C)CC3)nc12 [Substance A, 2-[4-(N,N-dimethylamino)-piperidino]-8-(N-benzyl-N-methyl-amino)-4-morpholino-pyrimido [5,4-d]pyrimidine]",1,0.3,
"CN(C)CC1CCN(c2nc(N3CCOCC3)c3ncnc(N(C)Cc4cccc5ccccc45)c3n2)CC1 [Substance E, 2-[4-(N,N-dimethylaminomethyl)-piperidino]-8-[N-(napth-1-yl-methyl)-N-methyl-amino]-4-morpholino-pyrimido [5,4-d]pyrimidine]",3,0.1,
"CN(Cc1cccc2ccccc12)c1nc(N2CCC(N(C)C)CC2)nc2c(N3CCOCC3)ncnc12 [Substance K, 2-[4-(N,N-dimethylamino)-piperidino]-4-[N-(naphth-1-yl-methyl)-N-methyl-amino]-8-morpholino-pyrimido-[5,4-d]pyrimidine]",3,0.1,
"CN(Cc1ccccc1)c1nc(N2CCC(NCC(c3ccccc3)c3ccccc3)CC2)nc2c(N3CCOCC3)ncnc12 [Substance I, 2-[4-(2,2-diphenylethylamino)-piperidino]-4-(N-benzyl-N-methyl-amino)-8-morpholino-pyrimido-[5,4-d]pyrimidine]",10,0.3,
"CN(Cc1ccccc1)c1nc(N2CCC(N(C)C)CC2)nc2c(N3CCOCC3)ncnc12 [Substance F, 4-(N-benzyl-methyl-amino)-2-[4-(N,N-dimethylamino)-piperidino]-8-morpholino-pyrimido [5,4-d]pyrimidine]",3,0.3,
COC(=O)NC1CCN(c2nc(N3CCOCC3)c3ncnc(N(C)Cc4ccccc4)c3n2)CC1 [Substance B],10,1,
"CN(Cc1cccc2ccccc12)c1ncnc2c(N3CCOCC3)nc(N3CCC(N(C)C)CC3)nc12 [Substance H, 2-[4-(N,N-dimethylamino)-piperidino]-8-[N-(naphth-1-yl-methyl)-N-methyl-amino]-4-morpholino-pyrimido [5,4-d]pyrimidine]",3,0.1,
